SMILES strings stand for the structures.

As usually defined, the IC50 is the point on the concentration scale where inhibition reaches its midpoint.

Chain of P2X7 receptor (Q99572 whole entry): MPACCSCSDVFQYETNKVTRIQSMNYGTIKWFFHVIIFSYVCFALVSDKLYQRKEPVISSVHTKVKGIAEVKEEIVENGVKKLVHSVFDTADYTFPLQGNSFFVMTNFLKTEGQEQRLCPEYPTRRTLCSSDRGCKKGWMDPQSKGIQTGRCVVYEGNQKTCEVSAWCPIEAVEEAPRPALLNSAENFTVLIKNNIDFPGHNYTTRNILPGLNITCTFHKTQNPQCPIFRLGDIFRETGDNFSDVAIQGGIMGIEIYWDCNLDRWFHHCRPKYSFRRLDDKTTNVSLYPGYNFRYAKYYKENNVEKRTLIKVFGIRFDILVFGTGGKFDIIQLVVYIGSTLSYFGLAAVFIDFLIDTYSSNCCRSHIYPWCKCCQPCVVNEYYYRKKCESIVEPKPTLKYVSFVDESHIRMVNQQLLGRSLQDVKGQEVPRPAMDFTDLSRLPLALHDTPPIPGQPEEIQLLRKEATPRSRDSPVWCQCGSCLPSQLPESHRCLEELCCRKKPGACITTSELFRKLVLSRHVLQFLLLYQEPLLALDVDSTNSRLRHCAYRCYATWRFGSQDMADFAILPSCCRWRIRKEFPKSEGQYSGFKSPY

In this experiment the target is P2X7 receptor (Homo sapiens (Human), UniProt Q99572). Briefly: P2X7 FLIPR assay (BzATP-stimulated calcium fluorescence, antagonist IC50). Format: cell-based. The procedure, abridged:
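Cells expressing P2X7 receptor (human, rat or mouse), plated 24 hours earlier in low-serum medium, loaded with Fluo-4 NW dye (30 min 37° C, 30 min room temperature).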
`O=C(NCC(c1ccc(F)cc1)c1cnc(C(F)(F)F)nc1)c1cccc(F)c1Cl` (single isomer, unassigned; (-)) [(−)2-chloro-3-fluoro-N-[2-(4-fluorophenyl)-2-[2-(trifluorome] [(−)2-chloro-3-fluoro-N-[2-(4-fluorophenyl)-2-[2-(trifluoromethyl)pyrimidin-5-yl]ethyl]benzamide]: the IC50 came out at 1.8 nM.
Then `O=C(NCC(c1ccc(F)cc1)c1ccc(C(F)(F)F)nc1)c1cccc(F)c1Cl` (single isomer, unassigned; (-)) [(−)2-chloro-3-fluoro-N-[2-(4-fluorophenyl)-2-[6-(trifluorome] [(−)2-chloro-3-fluoro-N-[2-(4-fluorophenyl)-2-[6-(trifluoromethyl)-3-pyridyl]ethyl]benzamide], with 7 nM; and `O=C(NCC(c1cnc(C(F)(F)F)nc1)C1CCOCC1)c1cccc(F)c1Cl` (single isomer, unassigned; (-)) [(−)2-chloro-3-fluoro-N-[2-tetrahydropyran-4-yl-2-[2-(trifluo] [(−)2-chloro-3-fluoro-N-[2-tetrahydropyran-4-yl-2-[2-(trifluoromethyl)pyrimidin-5-yl]ethyl]benzamide], with 64 nM; and `O=C(NCC(CC1(C(F)(F)F)CC1)c1cnc(C(F)(F)F)nc1)c1cccc(F)c1Cl` (single isomer, unassigned; (-)) [(−)2-chloro-3-fluoro-N-[3-[1-(trifluoromethyl)cyclopropyl]-2] [(−)2-chloro-3-fluoro-N-[3-[1-(trifluoromethyl)cyclopropyl]-2-[2-(trifluoromethyl)pyrimidin-5-yl]propyl]benzamide], with 29 nM.
`O=C(NCC(CC1(C(F)(F)F)CC1)c1ccc(C(F)(F)F)nc1)c1cccc(F)c1Cl` (single isomer, unassigned; (-)) [(−)2-chloro-3-fluoro-N-[3-[1-(trifluoromethyl)cyclopropyl]-2] [(−)2-chloro-3-fluoro-N-[3-[1-(trifluoromethyl)cyclopropyl]-2-[6-(trifluoromethyl)-3-pyridyl]propyl]benzamide]: the half-maximal inhibitory concentration (IC50) was 16 nM.
Consider `O=C(NCC(c1ccc(F)cc1)c1cnc(C(F)(F)F)nc1)c1c(F)cccc1Cl` (single isomer, unassigned; (-)) [(−)2-chloro-6-fluoro-N-[2-(4-fluorophenyl)-2-[2-(trifluorome] [(−)2-chloro-6-fluoro-N-[2-(4-fluorophenyl)-2-[2-(trifluoromethyl)pyrimidin-5-yl]ethyl]benzamide], for which the concentration for half-maximal inhibition (IC50) is 2.6 nM.
On to `O=C(NCC(c1ccc(F)cc1)c1ccc(C(F)(F)F)nc1)c1c(F)cccc1Cl` (single isomer, unassigned; (-)) [(−)2-chloro-6-fluoro-N-[2-(4-fluorophenyl)-2-[6-(trifluorome] [(−)2-chloro-6-fluoro-N-[2-(4-fluorophenyl)-2-[6-(trifluoromethyl)-3-pyridyl]ethyl]benzamide], for which the half-maximal inhibitory concentration (IC50) is 8.5 nM.
Then `O=C(NCC(c1cnc(C(F)(F)F)nc1)C1CCOCC1)c1c(F)cccc1Cl` (single isomer, unassigned; (-)) [(−)2-chloro-6-fluoro-N-[2-tetrahydropyran-4-yl-2-[2-(trifluo] [(−)2-chloro-6-fluoro-N-[2-tetrahydropyran-4-yl-2-[2-(trifluoromethyl)pyrimidin-5-yl]ethyl]benzamide], with 68 nM; and `Cc1ncc(C(CNC(=O)c2ccccc2Cl)C2CCOCC2)cn1` (single isomer, unassigned; (-)) [(−)2-chloro-N-[2-(2-methylpyrimidin-5-yl)-2-tetrahydropyran-] [(−)2-chloro-N-[2-(2-methylpyrimidin-5-yl)-2-tetrahydropyran-4-yl-ethyl]benzamide], with 570 nM.
For the molecule `Cc1ncc(C(CNC(=O)c2ccccc2Cl)CC2(C(F)(F)F)CC2)cn1` (single isomer, unassigned; (-)) [(−)2-chloro-N-[2-(2-methylpyrimidin-5-yl)-3-[1-(trifluoromet] [(−)2-chloro-N-[2-(2-methylpyrimidin-5-yl)-3-[1-(trifluoromethyl)cyclopropyl]propyl]benzamide], the half-maximal inhibitory concentration (IC50) was 650 nM.
In the case of `O=C(NCC(c1cnc(C(F)(F)F)nc1)C1CCC(F)(F)CC1)c1cccc(F)c1Cl` (single isomer, unassigned; (-)) [(−)2-chloro-N-[2-(4,4-difluorocyclohexyl)-2-[2-(trifluoromet] [(−)2-chloro-N-[2-(4,4-difluorocyclohexyl)-2-[2-(trifluoromethyl)pyrimidin-5-yl]ethyl]-3-fluoro-benzamide], the IC50 was 44 nM.
Turning to `O=C(NCC(c1cnc(C(F)(F)F)nc1)C1CCC(F)(F)CC1)c1c(F)cccc1Cl` (single isomer, unassigned; (-)) [(−)2-chloro-N-[2-(4,4-difluorocyclohexyl)-2-[2-(trifluoromet] [(−)2-chloro-N-[2-(4,4-difluorocyclohexyl)-2-[2-(trifluoromethyl)pyrimidin-5-yl]ethyl]-6-fluoro-benzamide], the 50% inhibitory concentration (IC50) stood at 61 nM.
On to `O=C(NCC(c1cnc(C(F)(F)F)nc1)C1CCC(F)(F)CC1)c1ccccc1Cl` (single isomer, unassigned; (-)) [(−)2-chloro-N-[2-(4,4-difluorocyclohexyl)-2-[2-(trifluoromet] [(−)2-chloro-N-[2-(4,4-difluorocyclohexyl)-2-[2-(trifluoromethyl)pyrimidin-5-yl]ethyl]benzamide], for which the concentration for half-maximal inhibition (IC50) was 6.4 nM.
Then `O=C(NCC(c1ccc(F)cc1)c1cnc(C(F)(F)F)nc1)c1ccccc1Cl` (single isomer, unassigned; (-)) [(−)2-chloro-N-[2-(4-fluorophenyl)-2-[2-(trifluoromethyl)pyri] [(−)2-chloro-N-[2-(4-fluorophenyl)-2-[2-(trifluoromethyl)pyrimidin-5-yl]ethyl]benzamide], with 2 nM; and `O=C(NCC(c1ccc(F)cc1)c1ccc(C(F)(F)F)nc1)c1ccccc1Cl` (single isomer, unassigned; (-)) [(−)2-chloro-N-[2-(4-fluorophenyl)-2-[6-(trifluoromethyl)-3-p] [(−)2-chloro-N-[2-(4-fluorophenyl)-2-[6-(trifluoromethyl)-3-pyridyl]ethyl]benzamide], with 3.1 nM; and `O=C(NCC(c1cnc(C(F)(F)F)nc1)C1CCOCC1)c1ccccc1Cl` (single isomer, unassigned; (-)) [(−)2-chloro-N-[2-tetrahydropyran-4-yl-2-[2-(trifluoromethyl)] [(−)2-chloro-N-[2-tetrahydropyran-4-yl-2-[2-(trifluoromethyl)pyrimidin-5-yl]ethyl]benzamide], with 56 nM.
In the case of `O=C(NCC(CC1(C(F)(F)F)CC1)c1ccc(C(F)(F)F)nc1)c1ccccc1Cl` (single isomer, unassigned; (-)) [(−)2-chloro-N-[3-[1-(trifluoromethyl)cyclopropyl]-2-[6-(trif] [(−)2-chloro-N-[3-[1-(trifluoromethyl)cyclopropyl]-2-[6-(trifluoromethyl)-3-pyridyl]propyl]benzamide], the half-inhibitory concentration (IC50) was found to be 32 nM.
Then `O=C(NCC(CC1CC1)c1cnc(C(F)(F)F)nc1)c1cccc(F)c1Cl` (single isomer, unassigned; (-)) [(−)2-chloro-N-[3-cyclopropyl-2-[2-(trifluoromethyl)pyrimidin] [(−)2-chloro-N-[3-cyclopropyl-2-[2-(trifluoromethyl)pyrimidin-5-yl]propyl]-3-fluoro-benzamide], with 4.7 nM.
With `COc1cccc(C(=O)NCC(CC2CC2)c2cnc(C(F)(F)F)nc2)c1Cl` (single isomer, unassigned; (-)) [(−)2-chloro-N-[3-cyclopropyl-2-[2-(trifluoromethyl)pyrimidin] [(−)2-chloro-N-[3-cyclopropyl-2-[2-(trifluoromethyl)pyrimidin-5-yl]propyl]-3-methoxy-benzamide] the figure was 3.4 nM; with `O=C(NCC(CC1CC1)c1cnc(C(F)(F)F)nc1)c1ccccc1Cl` (single isomer, unassigned; (-)) [(−)2-chloro-N-[3-cyclopropyl-2-[2-(trifluoromethyl)pyrimidin] [(−)2-chloro-N-[3-cyclopropyl-2-[2-(trifluoromethyl)pyrimidin-5-yl]propyl]benzamide], 3.2 nM; with `O=C(NCC(CC1CC1)c1ccc(C(F)F)nc1)c1cccc(F)c1Cl` (single isomer, unassigned; (-)) [(−)2-chloro-N-[3-cyclopropyl-2-[6-(difluoromethyl)-3-pyridyl] [(−)2-chloro-N-[3-cyclopropyl-2-[6-(difluoromethyl)-3-pyridyl]propyl]-3-fluoro-benzamide], 19 nM.
With `O=C(NCC(CC1CC1)c1ccc(C(F)F)nc1)c1ccccc1Cl` (single isomer, unassigned; (-)) [(−)2-chloro-N-[3-cyclopropyl-2-[6-(difluoromethyl)-3-pyridyl] [(−)2-chloro-N-[3-cyclopropyl-2-[6-(difluoromethyl)-3-pyridyl]propyl]benzamide] the figure was 17 nM; with `O=C(NCC(CC1CC1)c1ccc(C(F)(F)F)nc1)c1cccc(C(F)(F)F)c1Cl` (single isomer, unassigned; (-)) [(−)2-chloro-N-[3-cyclopropyl-2-[6-(trifluoromethyl)-3-pyridy] [(−)2-chloro-N-[3-cyclopropyl-2-[6-(trifluoromethyl)-3-pyridyl]propyl]-3-(trifluoromethyl)benzamide], 110 nM; with `COc1cccc(C(=O)NCC(CC2CC2)c2ccc(C(F)(F)F)nc2)c1Cl` (single isomer, unassigned; (-)) [(−)2-chloro-N-[3-cyclopropyl-2-[6-(trifluoromethyl)-3-pyridy] [(−)2-chloro-N-[3-cyclopropyl-2-[6-(trifluoromethyl)-3-pyridyl]propyl]-3-methoxy-benzamide], 4.2 nM.
`CS(=O)(=O)c1ccc(Cl)c(C(=O)NCC(CC2CC2)c2ccc(C(F)(F)F)nc2)c1` (single isomer, unassigned; (-)) [(−)2-chloro-N-[3-cyclopropyl-2-[6-(trifluoromethyl)-3-pyridy] [(−)2-chloro-N-[3-cyclopropyl-2-[6-(trifluoromethyl)-3-pyridyl]propyl]-5-methylsulfonyl-benzamide]: the IC50 worked out at 8.1 nM.
